Results on 16 compounds are retold here after ChEMBL document CHEMBL1201862, “PubChem BioAssay data set” (2004).

Active and inactive are the calls of the source.
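For IC50 in this document: Dose-response confirmation in a TR-FRET assay detecting UBC13-driven polyubiquitin chain formation, inhibition measured.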

Paired box protein Pax-8, sequence (Q06710 whole entry): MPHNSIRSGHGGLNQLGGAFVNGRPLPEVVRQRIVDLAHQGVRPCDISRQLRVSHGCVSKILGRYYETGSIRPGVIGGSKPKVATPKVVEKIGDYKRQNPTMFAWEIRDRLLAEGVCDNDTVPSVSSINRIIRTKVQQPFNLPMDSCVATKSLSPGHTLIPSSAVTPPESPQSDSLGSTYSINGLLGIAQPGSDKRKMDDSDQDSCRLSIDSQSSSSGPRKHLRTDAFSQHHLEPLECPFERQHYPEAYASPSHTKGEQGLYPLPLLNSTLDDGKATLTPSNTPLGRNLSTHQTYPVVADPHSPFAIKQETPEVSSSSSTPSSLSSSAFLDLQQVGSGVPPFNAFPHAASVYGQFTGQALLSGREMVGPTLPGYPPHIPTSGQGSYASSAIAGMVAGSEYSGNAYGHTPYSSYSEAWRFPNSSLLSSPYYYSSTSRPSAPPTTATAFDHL

System in the first test: not listed separately
In words: NIH:OVCAR-3 ovarian cancer cell cytotoxicity, dose response, PAX8 inhibitor project, plate reader, dry powder samples (AID 743044). The format is functional, cell-based.
Broadly, the AC50 is the concentration giving half of the maximal activity seen. Turning to `COc1ccc(S(=O)(=O)Nc2ccc3c(c2)C(=O)N([C@H](C)CO)C[C@@H](C)[C@@H](CN(C)Cc2ccc(C(F)(F)F)cc2)OCCCC[C@H](C)O3)cc1`, the AC50 was 5.6 µM (active).

The next test concerns the target T1, DNA repair protein RAD52 homolog (Homo sapiens, UniProt P43351).
T1 sequence (P43351 whole entry): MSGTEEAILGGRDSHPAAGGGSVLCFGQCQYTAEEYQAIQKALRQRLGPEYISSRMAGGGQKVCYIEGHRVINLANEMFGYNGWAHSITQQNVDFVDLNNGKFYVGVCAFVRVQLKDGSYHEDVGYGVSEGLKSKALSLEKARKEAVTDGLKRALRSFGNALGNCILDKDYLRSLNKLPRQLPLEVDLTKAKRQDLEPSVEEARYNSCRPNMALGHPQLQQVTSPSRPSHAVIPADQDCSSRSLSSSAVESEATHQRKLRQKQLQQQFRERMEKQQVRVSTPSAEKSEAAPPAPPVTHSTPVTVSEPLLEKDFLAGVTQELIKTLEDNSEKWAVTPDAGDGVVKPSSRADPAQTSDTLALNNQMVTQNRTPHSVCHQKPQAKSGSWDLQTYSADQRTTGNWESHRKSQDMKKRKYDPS
Assay: not given
The class given is functional, biochemical.
Take `C[N+]1(CC(=O)NNc2c3ccccc3nc3ccccc23)CCOCC1`: the AC50 was 2.83 µM (active). For `CC(CC(=O)c1ccc(F)cc1)N1CCN(c2ccccc2)CC1` (stereo not drawn), the concentration at half-maximal activity (AC50) is 34.3 µM (active).

With `NCCCC[C@@H]1NC(=O)c2cc([N+](=O)[O-])cc(F)c2NCCCC[C@@H](C(N)=O)NC(=O)[C@H](CCC(N)=O)NC1=O`, the AC50 was 8.88 µM (active). As for `C1CCCCCC(NCCN2CCNCC2)CCCCC1`, the concentration at half-maximal activity (AC50) is 23.1 µM (active).

The next test deals with T2, Ubiquitin-conjugating enzyme E2 N (Homo sapiens, UniProt P61088).
T2 sequence (P61088 whole entry): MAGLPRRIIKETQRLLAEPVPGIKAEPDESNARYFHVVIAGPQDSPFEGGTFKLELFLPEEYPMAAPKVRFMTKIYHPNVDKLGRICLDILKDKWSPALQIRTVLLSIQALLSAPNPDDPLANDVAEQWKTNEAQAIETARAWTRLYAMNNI
Assay: not given
The class given is functional.
A word on the IC50: it is the concentration that inhibits the measured activity by half. As to `NCCCC[C@@H]1NC(=O)c2cc([N+](=O)[O-])cc(F)c2NCCCC[C@@H](C(N)=O)NC(=O)[C@H](CCC(N)=O)NC1=O`, the IC50 was > 20 µM (inactive).

System in the next test: not listed separately
As to the kind of experiment: intracellular Trypanosoma cruzi inhibitors in host cells – cell-based, plate reader, cherry-pick samples, set 3, dose response (AID 651818).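 Also: compounds incubated with infected cells for about four days.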 The format is functional.
Take `C[C@@H]1CN([C@H](C)CO)C(=O)Cc2cc(NC(=O)Cc3cn(C)c4ccccc34)ccc2O[C@H]1CN(C)Cc1ccc(-c2ccccc2)cc1`: the AC50 was 4.23 µM (active). As for `C[C@H](CO)N1C[C@H](C)[C@H](CN(C)C(=O)Nc2cccc3ccccc23)Oc2c(NC(=O)Nc3ccc(C(F)(F)F)cc3)cccc2C1=O`, the AC50 is 6.42 µM (active). For `C[C@@H]1CN([C@H](C)CO)C(=O)c2cccc(NC(=O)CCCCCC(=O)Nc3ccccc3N)c2O[C@@H]1CN(C)Cc1ccc(-c2ccccc2)cc1`, the AC50 was 4.22 µM (active).

In the case of `C[C@H]1CN([C@@H](C)CO)C(=O)c2cccc(NC(=O)c3nc4ccccc4s3)c2O[C@H]1CN(C)C(=O)Nc1ccc(C(F)(F)F)cc1`, the AC50 was 3.86 µM (active).

`C[C@H](CO)N1C[C@H](C)[C@H](CN(C)C(=O)Nc2ccc(F)cc2)Oc2c(NC(=O)Nc3cccc4ccccc34)cccc2C1=O`: the AC50 is 1.79 µM (active).

On to `COc1ccc(CN(C)C[C@@H]2OCCCC[C@@H](C)Oc3ccc(NC(=O)Nc4ccc(C(F)(F)F)cc4)cc3C(=O)N([C@H](C)CO)C[C@@H]2C)cc1`, for which the AC50 was 2.48 µM (active).

The next test addresses Paired box protein Pax-8 (Homo sapiens, UniProt Q06710). In words: inhibitors of PAX8-driven TPO luciferase reporter, dose response, RMG-I cells, cherry-pick (AID 687027).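 Also: luciferase reporter driven by Pax8 target thyroperoxidase promoter measured by SteadyGlo luminescence.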 The class given is functional, cell-based.
As to `COc1ccc(S(=O)(=O)Nc2ccc3c(c2)C(=O)N([C@H](C)CO)C[C@@H](C)[C@@H](CN(C)Cc2ccc(C(F)(F)F)cc2)OCCCC[C@H](C)O3)cc1`, the AC50 is 3.43 µM (active).

A further test deals with T3, Short transient receptor potential channel 4 (Mus musculus, UniProt Q9QUQ5).
T3 sequence (Q9QUQ5 whole entry): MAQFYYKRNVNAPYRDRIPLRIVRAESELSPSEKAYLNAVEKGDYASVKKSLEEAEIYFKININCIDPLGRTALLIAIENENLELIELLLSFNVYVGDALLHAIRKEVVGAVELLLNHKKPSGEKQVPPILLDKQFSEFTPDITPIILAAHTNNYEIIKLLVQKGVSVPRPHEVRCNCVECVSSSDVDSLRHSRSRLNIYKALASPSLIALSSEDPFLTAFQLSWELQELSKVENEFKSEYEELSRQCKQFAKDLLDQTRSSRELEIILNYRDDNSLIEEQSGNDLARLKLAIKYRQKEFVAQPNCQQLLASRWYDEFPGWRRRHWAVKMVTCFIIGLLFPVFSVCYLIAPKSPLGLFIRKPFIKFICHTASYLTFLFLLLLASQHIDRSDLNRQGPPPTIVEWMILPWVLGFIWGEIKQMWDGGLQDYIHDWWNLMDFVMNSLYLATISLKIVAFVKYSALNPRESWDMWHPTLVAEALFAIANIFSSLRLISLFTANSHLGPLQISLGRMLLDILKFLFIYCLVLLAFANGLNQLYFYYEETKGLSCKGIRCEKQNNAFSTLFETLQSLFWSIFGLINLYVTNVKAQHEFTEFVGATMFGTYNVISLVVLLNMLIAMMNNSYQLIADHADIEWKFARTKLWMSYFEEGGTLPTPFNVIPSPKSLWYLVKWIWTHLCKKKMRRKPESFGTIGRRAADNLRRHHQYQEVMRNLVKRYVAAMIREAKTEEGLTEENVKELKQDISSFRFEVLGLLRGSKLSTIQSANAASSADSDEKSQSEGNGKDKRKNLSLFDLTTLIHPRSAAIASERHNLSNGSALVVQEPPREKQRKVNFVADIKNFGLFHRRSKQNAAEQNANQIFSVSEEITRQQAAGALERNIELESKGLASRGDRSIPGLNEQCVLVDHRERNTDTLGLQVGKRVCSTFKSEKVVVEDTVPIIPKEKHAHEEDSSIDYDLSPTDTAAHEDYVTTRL
As to the kind of experiment: mouse TRPC4 channel activators, dose response, cell-based, HEK293 TRPC4/mu-opioid, Fluo-4 calcium (AID 434937). The format is functional.
What is called EC50 is the concentration that produces a half-maximal response. For `CC(N)Cc1c[nH]c2cc3c(cc12)OCCO3` (stereo not drawn), the concentration for a half-maximal effect (EC50) was 1.33 µM (active).

Consider `CCOc1ccccc1C1CC(c2ccc(Cl)cc2)Nc2nc(N)nn21` (stereo not drawn), for which the 50% effective concentration (EC50) was 11.9 µM (active). Same read-out and setting: then `CCN(CCCNS(=O)(=O)c1cc(-c2cc(C)no2)ccc1C)Cc1ccccc1`, with 0.299 µM (active); and `CC(CN1CCCC(C(N)=O)C1)c1ccccc1` (stereo not drawn), with 1.19 µM (active); and `C#Cc1cccc(C(=O)NC2CCCN(C3Cc4ccccc4C3)C2)c1` (stereo not drawn), with 0.596 µM (active).
